Experimental findings from patent publication US12077503B2, “Substituted cyclic amides and their use as herbicides” (FMC CORPORATION, priority 2015, dated 2024) are described below.

Read-outs that look alike come from different tables or passages of the source.

Holding throughout (assay type): in vivo
The subject of assay [1] is pigweed (Amaranthus retroflexus). Nature of the assay: Test A preemergence. To be noted: Amaranthus retroflexus, pre-emergence, 240 h; for pest or weed control at 125 g/ha: 125 g ai/ha, 0 to 100 scale where 0 is no effect and 100 is complete control; for pest or weed control at 500 g/ha: 500 g ai/ha.
Assay [2] deals with Galium (catchweed bedstraw, Galium aparine). Put plainly: Test A postemergence. To be noted: Galium, post-emergence, 240 h; for pest or weed control at 125 g/ha: 125 g ai/ha, postemergence. An outline of the steps:
(§1)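 Preemergence directed soil spray on seeded pots, or postemergence application to plants 2–10 cm, one- to two-leaf. Solvent mixture non-phytotoxic, with surfactant. Scored ~10 d later, visually, 0–100 vs untreated.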

For another assay, the system named is Kochia (Kochia scoparia). Nature of the assay: Test A postemergence. Particulars: Bassia scoparia, post-emergence, 240 h; for pest or weed control at 125 g/ha: 125 g ai/ha, postemergence. An outline of the steps:
as §1

Assay [3] relates to pigweed (Amaranthus retroflexus). Nature of the assay: Test A postemergence. To be noted: Amaranthus retroflexus, post-emergence, 240 h; for pest or weed control at 125 g/ha: 125 g ai/ha, postemergence. An outline of the steps:
as §1

The subject of assay [4] is giant foxtail (Setaria faberii). Nature of the assay: Test A postemergence. Particulars: Setaria faberi, post-emergence, 240 h; for pest or weed control at 125 g/ha: 125 g ai/ha, postemergence. The procedure, abridged: as §1
Assay [5] relates to barnyardgrass (Echinochloa crus-galli). Put plainly: Test A postemergence. Particulars: Echinochloa crus-galli, post-emergence, 240 h; for pest or weed control at 125 g/ha: 125 g ai/ha, postemergence. The procedure, abridged:
as §1

The next assay has as its system corn (Zea mays). Put plainly: Test A postemergence. To be noted: Zea mays, post-emergence, 240 h; for plant injury at 125 g/ha: visual injury rating after approximately 10 d, read-out: Corn plant response rating (0 to 100 scale, 0 no effect, 100 complete control). An outline of the steps:
as §1

Assay [6] deals with ryegrass, Italian (Italian ryegrass, Lolium multiflorum). Nature of the assay: Test A postemergence. Particulars: Lolium multiflorum, post-emergence, 240 h; for pest or weed control at 125 g/ha: 125 g ai/ha, postemergence. The procedure, abridged: as §1
In assay [7] the test system is ragweed (common ragweed, Ambrosia elatior). Put plainly: Test A postemergence. Particulars: Ambrosia artemisiifolia, post-emergence, 240 h; for pest or weed control at 125 g/ha: 125 g ai/ha, postemergence. An outline of the steps: as §1
Assay [8] deals with wheat (Triticum aestivum). Put plainly: Test A postemergence. Particulars: Triticum aestivum, post-emergence, 240 h; for plant injury at 125 g/ha: 125 g ai/ha, postemergence. The procedure, abridged:
as §1

In assay [9] the test system is blackgrass (Alopecurus myosuroides). Put plainly: Test A postemergence. To be noted: Alopecurus myosuroides, post-emergence, 240 h; for pest or weed control at 125 g/ha: 125 g ai/ha, postemergence. The procedure, abridged: as §1
Assay [10] relates to barnyardgrass (Echinochloa crus-galli). Put plainly: Test B flooded paddy test. Particulars: Flood, 250 g ai/ha; for pest or weed control at 250 g/ha: Echinochloa crus-galli, scale of 0 to 100 where 0 is no effect and 100 is complete control, read-out: Barnyardgrass plant response rating. An outline of the steps:
(§2)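 2-leaf plants; pots flooded 3 cm over soil; cpd added to paddy water; depth held; greenhouse 13–15 d; visual rating vs controls, 0 = no effect, 100 = complete control.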

In the next assay the test system is rice (Oryra sativa). Nature of the assay: Test B flooded paddy test. Particulars: Flood, 250 g ai/ha; for pest or weed control at 250 g/ha: Oryza sativa, scale of 0 to 100 where 0 is no effect and 100 is complete control, read-out: Rice plant response rating. An outline of the steps:
as §2

In assay [11] the test system is ducksalad (Heteranthera limosa). Nature of the assay: Test B flooded paddy test. Particulars: Flood, 250 g ai/ha; for pest or weed control at 250 g/ha: Heteranthera limosa, scale of 0 to 100 where 0 is no effect and 100 is complete control, read-out: Ducksalad plant response rating. The procedure, abridged:
as §2

Assay [12] has as its system sedge, umbrella (small-flower umbrella sedge, Cyperus difformis). Nature of the assay: Test B flooded paddy test. To be noted: Flood, 250 g ai/ha; for pest or weed control at 250 g/ha: Cyperus difformis, scale of 0 to 100 where 0 is no effect and 100 is complete control, read-out: Sedge, Umbrella plant response rating. An outline of the steps:
as §2

[13] abbreviates: 0 to 100 scale where 0 is no effect and 100 is complete control, 13 to 15 d.
Setting [14] is: preemergence, read-out: Pigweed plant response rating.
[15] abbreviates: Preemergence, visual injury vs untreated controls after approximately 10 d, read-out: Pigweed plant response rating (0 to 100 scale where 0 is no effect and 100 is complete control).
[16] abbreviates: visual injury rating after approximately 10 d, read-out: Galium plant response rating (0 to 100 scale, 0 no effect, 100 complete control).
Where [17] appears, read: visual injury rating after approximately 10 d, read-out: Kochia plant response rating (0 to 100 scale, 0 no effect, 100 complete control).
The mark [18] stands for this setting: visual injury rating after approximately 10 d, read-out: Pigweed plant response rating (0 to 100 scale, 0 no effect, 100 complete control).
Where [19] appears, read: visual injury rating after approximately 10 d, read-out: Foxtail, Giant plant response rating (0 to 100 scale, 0 no effect, 100 complete control).
Where [20] appears, read: visual injury rating after approximately 10 d, read-out: Barnyardgrass plant response rating (0 to 100 scale, 0 no effect, 100 complete control).
The mark [21] stands for this setting: visual injury rating after approximately 10 d, read-out: Ryegrass, Italian plant response rating (0 to 100 scale, 0 no effect, 100 complete control).
Where [22] appears, read: visual injury rating after approximately 10 d, read-out: Ragweed plant response rating (0 to 100 scale, 0 no effect, 100 complete control).
[23] abbreviates: visual injury rating after approximately 10 d, read-out: Wheat plant response rating (0 to 100 scale, 0 no effect, 100 complete control).
The mark [24] stands for this setting: visual injury rating after approximately 10 d, read-out: Blackgrass plant response rating (0 to 100 scale, 0 no effect, 100 complete control).

In the case of `CN1C[C@H](c2ccc(F)c(F)c2)[C@@H](C(=O)Nc2ccccc2F)C1=O` [Compound 596, (3S,4S)-4-(3,4-difluorophenyl)-N-(2-fluorophenyl)-1-methyl-2-oxo-3-pyrrolidinecarboxamide], the pest or weed control at 125 g/ha stood at 0% in assay [1] (Preemergence, visual injury after approximately 10 d, read-out: Plant response rating, Pigweed); 30% in assay [2] (visual rating after approx. 10 d, 0 to 100 scale (0 no effect, 100 complete control), read-out: Plant response rating, Galium); 40% in the assay on Kochia (Kochia scoparia) (visual rating after approx. 10 d, 0 to 100 scale (0 no effect, 100 complete control), read-out: Plant response rating, Kochia); 0% in assay [3] (visual rating after approx. 10 d, 0 to 100 scale (0 no effect, 100 complete control), read-out: Plant response rating, Pigweed); 90% in [4] (visual rating after approx. 10 d, 0 to 100 scale (0 no effect, 100 complete control), read-out: Plant response rating, Foxtail, Giant); 90% in [5] (visual rating after approx. 10 d, 0 to 100 scale (0 no effect, 100 complete control), read-out: Plant response rating, Barnyardgrass). The pest or weed control at 125 g/ha was 0% in [6] (visual rating after approx. 10 d, 0 to 100 scale (0 no effect, 100 complete control), read-out: Plant response rating, Ryegrass, Italian); 0% in [7] (visual rating after approx. 10 d, 0 to 100 scale (0 no effect, 100 complete control), read-out: Plant response rating, Ragweed); 20% in [9] (visual rating after approx. 10 d, 0 to 100 scale (0 no effect, 100 complete control), read-out: Plant response rating, Blackgrass). The pest or weed control at 500 g/ha was 40% in assay [1] (Preemergence, visual injury approx. 10 d, read-out: Pigweed plant response rating (0 to 100 scale, 0 is no effect, 100 is complete control)); 50% in [2] (Postemergence, 500 g ai/ha, 0 to 100 scale where 0 is no effect and 100 is complete control, read-out: Plant response rating, Galium); 60% in the assay with Kochia (Kochia scoparia) (Postemergence, 500 g ai/ha, 0 to 100 scale where 0 is no effect and 100 is complete control, read-out: Plant response rating, Kochia); 20% in assay [3] (Postemergence, 500 g ai/ha, 0 to 100 scale where 0 is no effect and 100 is complete control, read-out: Plant response rating, Pigweed); 90% in [4] (Postemergence, 500 g ai/ha, 0 to 100 scale where 0 is no effect and 100 is complete control, read-out: Plant response rating, Foxtail, Giant); 90% in assay [5] (Postemergence, 500 g ai/ha, 0 to 100 scale where 0 is no effect and 100 is complete control, read-out: Plant response rating, Barnyardgrass). In addition, the pest or weed control at 500 g/ha in assay [6] (Postemergence, 500 g ai/ha, 0 to 100 scale where 0 is no effect and 100 is complete control, read-out: Plant response rating, Ryegrass, Italian) was found to be 40%; in [7] (Postemergence, 500 g ai/ha, 0 to 100 scale where 0 is no effect and 100 is complete control, read-out: Plant response rating, Ragweed), 0%; in assay [9] (Postemergence, 500 g ai/ha, 0 to 100 scale where 0 is no effect and 100 is complete control, read-out: Plant response rating, Blackgrass) it was 50%. Besides, the Corn plant response rating (crop injury, 0 = no effect, 100 = complete kill) at 125 g/ha in the assay on corn (Zea mays) (125 g ai/ha, postemergence, visual rating after approx. 10 d, 0 to 100 scale (0 no effect, 100 complete control)) was 20%. The Corn plant response rating (crop injury, 0 = no effect, 100 = complete kill) at 500 g/ha in the assay with corn (Zea mays) (Postemergence, 500 g ai/ha, 0 to 100 scale where 0 is no effect and 100 is complete control) is 60%. Moreover, in [8] (visual rating after approx. 10 d, 0 to 100 scale (0 no effect, 100 complete control), read-out: Plant response rating, Wheat), the plant injury at 125 g/ha is 0%. In [8] (Postemergence, 500 g ai/ha, 0 to 100 scale where 0 is no effect and 100 is complete control, read-out: Plant response rating, Wheat), the plant injury at 500 g/ha amounted to 50%. The “Plant response rating, Barnyardgrass” value in [10] (setting [13]) worked out at 95. For the same compound, the “Plant response rating, Rice” value with rice (Oryra sativa) (setting [13]) was found to be 0. Also, the “Plant response rating, Ducksalad” value in [11] (setting [13]) came out at 100. The “Plant response rating, Sedge, Umbrella” value in assay [12] (setting [13]) was 0.

As to `Cc1c(F)ccc([C@H]2CN(C)C(=O)[C@@H]2C(=O)Nc2ccccc2F)c1F` [Compound 833], the pest or weed control at 125 g/ha in assay [1] (setting [14]) stood at 0%; in assay [2] (setting [16]), 40%; in the assay with Kochia (Kochia scoparia) (setting [17]) it was 30%; in [3] (setting [18]), 0%; in assay [4] (setting [19]), 90%; in assay [5] (setting [20]), 90%. Also, the pest or weed control at 125 g/ha in assay [6] (setting [21]) turned out to be 60%; in assay [7] (setting [22]), 0%; in assay [9] (setting [24]), 40%. Moreover, the pest or weed control at 500 g/ha in [1] (setting [15]) stood at 0%. For the same compound, the plant injury at 125 g/ha worked out at 20% in the assay with corn (Zea mays) (125 g ai/ha, postemergence) and 0% in assay [8] (setting [23]). Also, the pest or weed control at 250 g/ha in assay [10] was 45%; with rice (Oryra sativa), 0%; in assay [11], 85%; in assay [12] it was 0%.

For the compound `Cc1c(F)ccc([C@H]2CN(C)C(=O)[C@@H]2C(=O)Nc2ccccc2C(F)(F)F)c1F` [Compound 841], the pest or weed control at 125 g/ha was 0% in assay [1] (setting [14]); 40% in assay [2] (setting [16]); 30% in the assay with Kochia (Kochia scoparia) (setting [17]); 0% in assay [3] (setting [18]); 90% in [4] (setting [19]); 80% in assay [5] (setting [20]). Further, the pest or weed control at 125 g/ha amounted to 20% in [6] (setting [21]), 0% in assay [7] (setting [22]) and 30% in assay [9] (setting [24]). In [1] (setting [15]), the pest or weed control at 500 g/ha came to 30%. Further, the plant injury at 125 g/ha with corn (Zea mays) (125 g ai/ha, postemergence) was 0%; in [8] (setting [23]), 0%. Besides, the pest or weed control at 250 g/ha is 40% in [10], 0% in the assay on rice (Oryra sativa), 80% in assay [11] and 0% in assay [12].
